Measured values: patent publication US20200397673A1, “AN ANTIMICROBIAL COMPOSITION” (Conopco, Inc., d/b/a UNILEVER, priority 2017, published 2020)

Tested on: M. furfur ATCC 14521
Assay: Antifungal activity (log reduction) on M. furfur
Format: cell-based
Details: contact time 24 hr, 10 mg sample in 1000 μL inoculum, 10^5 cells/ml, 32° C.
Method: The above samples were subjected to their anti fungal efficacy on M. furfur as described hereinafter.
M. furfur ATCC 14521 strain was revived from glycerol stock on Modified Dixon agar. Plate was at 30° C. for 72 hrs. Approximately 72 hrs prior to testing, the plate culture was inoculated onto the surface of another sterile Modified Dixon agar plate and incubated at 30° C. for approximately 72 hrs. From second subculture, the optical density of culture is adjusted at 620 nm to give cell strength of 10^7 cfu/ml. The culture was further diluted for 100 times to achieve 10^5 cfu/ml in Pityrosporum broth.
1000 μL of M. furfur inocula were added to the above tubes and a blank sterile 1.5 ml Eppendorf tube (no particles as control), respectively so that the load in each tube is 10^5 cells/ml.
All the samples were kept shaken @120 RPM in a shaker incubator at 32° C. After 24 hours incubation, 10 μL of the samples were withdrawn from the respective 1.5 ml Eppendorf tubes and diluted with 990 μL of Pityrosporum broth. This represents 10^−2 dilution. Serial dilution was performed from the above 24 hours inocula and plated 100 μL of dilution onto modified Dixon plate. Plate dilution 10^−2, 10^−3, 10^−4 and 10^−5. All the plates were kept for incubation at 32° C. for 24-72 hrs. Plate count for all the plates were done.

zinc pyrithione [Example B]
Log reduction: 1.58
